One data set has as its system eNOS. The experiment in a line: IHC staining of eNOS in epididymal fat pads. The format is in vivo, mice. The following applies: protection, 2.5 mg/kg/day. The protocol: (§1) For IHC of MMP-9/TNFα, HSL/p-HSL/ATGL and eNOS/IL-10, antigen retrieval of de-paraffinated sections was performed in Dako target retrieval solution, pH 9.0, in a vegetable steamer followed by the quenching of endogenous peroxidase activity with 3.0% H2O2 in methanol. Sections were then incubated with specific primary antibodies overnight at 4° C. in a humidified chamber. The antibodies used included rabbit polyclonal anti-eNOS (1:50 dilution) (Abcam, Cambridge, UK) or rabbit monoclonal anti-cleaved caspase-3 (1:50 dilution) (Cell Signaling, USA). The sections were then examined using a DAKO REAL EnVision™ Detection System kit (DAKO, Carpinteria, Calif.) and counterstained with hematoxylin. Images were obtained through a Nikon Eclipse TE200-S microscope.

For a further data set, the system named is ROCK II. The experiment in a line: ROCK II expression in liver of HFD mice (8 weeks). The following applies: animals treated with HFD. The format is in vivo. The protocol:
(§2) In the 8 week experiment, C57BL/6J male mice (21-22 g), after fasting, were fed a HFD as a model of hyperlipidemia for 8 weeks. During the 2 month experiments, mice fasted for one night before the experiment was changed from a standard diet (STD) to a HFD and then the mice were randomly divided into 5 groups, including 2 control and 3 treatment groups. Six mice were used in each group. […] Liver from the protection group supplemented with KMUP-1 HCl (1 mg/kg/day) were used to determine the HMG CoA reductase expression.
(§3) For the expression of SR-B1, HMGR, PPARγ and ROCK isolated liver tissues were cut into small chips and placed into an extraction buffer (Tris 10 mM, pH 7.0, NaCl 140 mM, PMSF 2 mM, DTT 5 mM, NP-40 0.5%, pepstatin A 0.05 mM and leupeptin 0.2 mM) for hepatic protein extraction, and centrifuged at 20,000 g for 30 minutes. The obtained protein extract was boiled to a ratio of 4:1 with a sample buffer (Tris 100 mM, pH 6.8, glycerol 20%, SDS 4% and bromophenol blue 0.2%). Electrophoresis was performed using 10% SDS-polyacrylamide gel (1 hour, 100 V, 40 mA, 20 μg protein per lane).
(§4) Separated proteins, after 3 repeated centrifugations to discard up-layer tissue lipid inpurity, were transferred to PVDF membranes treated with 5% fat-free milk powder to block the nonspecific IgGs (90 minutes, 100 V) and incubated for 1 hour with specific protein antibody. […]

A further data set concerns TNF-α. The experiment in a line: IHC staining of TNF-α in steatohepatitis liver. The data set is classed as in vivo, mice. The note with it: 2.5 mg/kg/day, 14 weeks (protection) and 6 weeks (treatment). The protocol:
(§5) In the 14-week experiment, mice were fed a HFD from week 1 to week 14. During the 3 month experiments, KMUP-1 HCl (2.5 mg) was added to 200 ml tap water and) and drink for 14 weeks or for the last 6 weeks on mice or obese mice fed HFD, separately. 5 mice had free access to drinking water from week 1 to week 14 (protective group) or from week 8 to week 14 (treatment group). Tap water was used to normalize mineral nutrition (Scheme A).
as §1

The test system of a further data set is IL-10. Nature of the data set: IHC staining of IL-10 in epididymal fat pads. The format is in vivo, mice. The following applies: protection, 2.5 mg/kg/day. On the procedure:
as §1

The test system of another data set is mice fed with HFD. The experiment in a line: HFD-fed mice, 8 weeks, gavage: serum/liver lipids, body weight, food intake. The format is in vivo. The following applies: HFD mice, 8 weeks. The protocol: as §2
Within 2 months, the 3 day food intake average for each animal was measured. The weight gain and plasma lipid levels of each group were determined and compared to the non-treatment control group. Mouse blood was collected during the daytime by cardiac puncture followed by centrifugation at 90 g (Benchtop Centrifuge, U.S.A.) to separate the serum, and frozen at −80° C., for biochemical analysis using a Hitachi Clinical Analyzer 7070 (Hitachi High-Technologies Co. Tokyo, Japan). Agents used in the assays were Obtained from Merck & Co. (Kenilworth, N.J., U.S.A.). Triglyceride (TG), total cholesterol, HDL cholesterol and LDL cholesterol in mouse serum were measured by methods used in the clinic. To measure the hepatic TG, isolated liver were cut into small chips.

The subject of a further data set is mice fed a HFD. Nature of the data set: HFD-fed mice, 14-week experiment: body weight, liver morphology, H&E, oil globulets. The format is in vivo. The protocol: as §5
The diameter of the white bar in the photograph was standardized at 100 μM for measuring the specific diameter of oil globulets in a whole liver slice, observed by microscope, with the aid of Powerpoint PC computer software (Microsoft®, USA) and printed out by a Hewlett-Packard® printer (USA). An increase in oil globulet diameter and cell number indicated increasing liver steatosis, i.e. steaotohepatitis. In contrast, decrease in diameter and the number of fat cells indicated the inhibition of steaotohepatitis. […] Hematoxylin-eosin (H&E) and […] staining of liver were used to assess oil globulet numbers under a microscope.
Mice liver and epididymal fat pads were cut and soaked in formalin, dehydrated through graded alcohols and embedded in paraffin. Specimens of liver tissues and epididymal fat pads fixed with formalin (4%) were embedded in paraffin for one hour at 4° C., cut into […] sections, and subjected to H&E staining before examination by light microscope. In heart tissues, the 4-μm-thick paraffin sections were cut from paraffin-embedded tissue blocks and de-paraffinized by immersion in xylene and rehydrated. The slices were then dyed with H&E. After gently rinsing with water, each slide was dehydrated through graded alcohols and finally soaked in xylene twice.
Hematoxylin-eosin (H&E) and IHC staining of liver were used to assess oil globulet numbers under a microscope. A 100 μM white bar was used to determine oil globule sizes in the liver. Oil globulets in a cell were counted from larger to smaller until size limitations were reached. Increases of oil globulet diameter and number indicated increasing liver steatosis. In contrast, a decrease in oil globulet diameters and numbers could indicate the inhibition of liver steatosis. Oil globulets were measured using a Nikon Eclipse TE200-S microscope, aided by Powerpoint computer software (Microsoft®) and printed by a HP® printer to measure the diameter and number of oil globulets on paper. Counting: of oil globules was performed from larger to smaller ones until the observation reached its limit.

The next data set has as its system PPARγ. The experiment in a line: PPARγ expression in liver of HFD mice (8 weeks). The data set is classed as in vivo. The note with it: animals treated with HFD. The protocol: as §2, §3, §4
The next data set concerns LDLR. Nature of the data set: Fluorescence staining of LDLRs in HepG2 cells. The data set is classed as cell-based. The protocol: HepG2 cells were used to determine the cellular protein expression of LDLRs in the presence of exogenous LDL (500 μg/mL) Bodipy-493/503 ([…]) overnight at 4° C., followed by merger of obtained BODIPY- and LDL-images to analyze the location of LDLRs. All images were collected and analyzed by scanning with Nikon Eclipse TE200-S microscope (Tokyo, Japan).

Data on one molecule can be found in patent US20150359798A1, “PIPERAZINYL DERIVATIVE REDUCES HIGH-FAT DIET-INDUCED ACCUMULATION OF FAT IN THE LIVERS, […]” (priority 2011, published 2015).

`Cn1c(=O)c2c(ncn2CCN2CCN(c3ccccc3Cl)CC2)n(C)c1=O` [KMUP-1, 7-[2-[4-(2-chlorophenyl)piperazinyl]ethyl]-1,3-dimethyl xanthine]: in the data set on eNOS, the “IHC staining of eNOS in epididymal fat pads” value is given as “inhibited”. Also, the “ROCK II in liver” value in the data set on ROCK II is “inactivated”. For the same molecule, the “TNF-α immunohistochemistry on fatty liver slices” value with TNF-α is on record as “inhibited partial”. Further, the “IHC staining of IL-10 in epididymal fat pads” value with IL-10 was “increased”. Besides, in the data set on mice fed with HFD, the HDL cholesterol level entry is reported as “significantly increased” and the HFD-induced hypercholesterolemia entry is on record as “significantly improved”. In the data set with mice fed with HFD (2.5 mg/kg), this molecule had an HDL cholesterol of 103.6 ± 4.2 mg/dL, an LDL cholesterol of 14.2 ± 1.4 mg/dL, a TG in serum of 74.5 ± 5.1 mg/dL and a TG of liver of 28.4 ± 3.6 mg/dL. Besides, in the data set with mice fed with HFD (2.5 mg/kg), the “Tot. chol. (total cholesterol)” value was 133.0 ± 5.1 mg/dL and the “final BW (Body weight)” value was found to be 25.7 ± 0.7 g. Besides, in the data set with mice fed with HFD (5 mg/kg), the HDL cholesterol is 118.3 ± 5.7 mg/dL, the LDL cholesterol was found to be 14.2 ± 2.2 mg/dL, the TG in serum is 72.7 ± 4.7 mg/dL and the TG of liver amounted to 26.12 ± 3.1 mg/dL. Besides, in the data set on mice fed with HFD (5 mg/kg), the “Tot. chol. (total cholesterol)” value came to 125.5 ± 9.8 mg/dL and the “final BW (Body weight)” value turned out to be 24.3 ± 0.5 g. Also, in the data set with mice fed a HFD (oral 2.5 mg/kg, last 6 weeks/14 weeks), the “fat globules and Mallory's hyaline bodies (H&E staining of liver)” value is on record as “reduced”. The “oil globulet number and changes of oil globulet diameter in liver” value in the data set on mice fed a HFD (treatment and protection groups) is reported as “sharply reduced”. Moreover, the PPARγ in liver entry in the data set with PPARγ is “activated”. The “LDLR (green fluorescence) expression” value in the data set on LDLR (HepG2, 24 hours, KMUP-1 10^−6, 10^−5, 10^−4 M, simvastatin 10^−5 M) is recorded as “increased”. In addition, the “LDLR fluorescence at high concentration” value in the data set with LDLR (HepG2, concentrations >10^−4 M, near the viability range) is on record as “decline in fluoresence”.
